From patent US9475775B2, “Benzazepine dicarboxamide compounds” (Hoffmann-La Roche Inc., priority 2015, dated 2016)

Tests used:
human TLR8 = human TLR8 (Homo sapiens (Human), UniProt Q9NR97); assay: HEK-Blue human TLR8 cells, NF-κB SEAP reporter assay; format: cell-based; conditions: stimulation for 20 hours
Description: (§1) For TLR8 and TLR7 activity testing, HEK-Blue human TLR8 or TLR7 cells (Invivogen, San Diego, Calif., USA) are used, respectively. These cells are designed for studying the stimulation of human TLR8 or TLR7 by monitoring the activation of NF-κB. A SEAP (secreted embryonic alkaline phosphatase) reporter gene is placed under the control of the IFN-b minimal promoter fused to five NF-κB and AP-1-binding sites. Therefore the reporter expression is regulated by the NF-κB promoter upon stimulation of human TLR8 or TLR7 for 20 hours. The cell culture supernatant SEAP reporter activity was determined using Quanti Blue kit (Invivogen, San Diego, Ca, USA) at a wavelength of 640 nm, a detection medium that turns purple/blue in the presence of alkaline phosphatase. EC50 values were determined using Activity Base analysis (ID Business Solution, Limited).

human TLR7 = human TLR7 (Homo sapiens (Human), UniProt Q9NYK1); assay: HEK-Blue human TLR7 cells, NF-κB SEAP reporter assay; format: cell-based; conditions: stimulation for 20 hours
Chain of human TLR7 (Q9NYK1 27-1049): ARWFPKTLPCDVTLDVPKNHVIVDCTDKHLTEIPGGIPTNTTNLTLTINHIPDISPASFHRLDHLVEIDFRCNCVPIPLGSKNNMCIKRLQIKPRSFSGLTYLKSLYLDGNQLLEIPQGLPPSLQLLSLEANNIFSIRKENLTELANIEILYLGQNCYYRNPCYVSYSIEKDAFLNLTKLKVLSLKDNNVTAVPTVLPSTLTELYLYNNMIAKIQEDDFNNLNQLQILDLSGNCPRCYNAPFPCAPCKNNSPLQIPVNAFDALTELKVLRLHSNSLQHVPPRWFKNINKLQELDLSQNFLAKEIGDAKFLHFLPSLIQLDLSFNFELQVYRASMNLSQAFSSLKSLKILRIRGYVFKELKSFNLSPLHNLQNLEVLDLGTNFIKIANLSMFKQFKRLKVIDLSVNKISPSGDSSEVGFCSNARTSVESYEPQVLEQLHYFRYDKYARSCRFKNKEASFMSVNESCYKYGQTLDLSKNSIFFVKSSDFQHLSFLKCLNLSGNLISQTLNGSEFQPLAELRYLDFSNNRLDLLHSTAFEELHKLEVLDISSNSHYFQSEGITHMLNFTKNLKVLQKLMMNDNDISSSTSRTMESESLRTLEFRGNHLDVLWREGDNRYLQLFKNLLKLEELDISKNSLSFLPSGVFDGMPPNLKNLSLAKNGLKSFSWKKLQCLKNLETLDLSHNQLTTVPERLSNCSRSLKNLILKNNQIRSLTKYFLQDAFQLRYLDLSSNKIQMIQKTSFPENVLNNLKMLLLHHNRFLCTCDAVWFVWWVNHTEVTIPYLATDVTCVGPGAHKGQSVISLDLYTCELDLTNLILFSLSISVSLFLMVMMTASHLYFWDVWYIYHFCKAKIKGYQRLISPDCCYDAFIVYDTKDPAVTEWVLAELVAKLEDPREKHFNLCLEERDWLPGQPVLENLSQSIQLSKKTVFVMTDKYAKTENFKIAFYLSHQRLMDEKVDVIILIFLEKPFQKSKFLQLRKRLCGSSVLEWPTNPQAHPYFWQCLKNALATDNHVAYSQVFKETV
Description: as §1

Chain of human TLR8 (Q9NR97 27-1041): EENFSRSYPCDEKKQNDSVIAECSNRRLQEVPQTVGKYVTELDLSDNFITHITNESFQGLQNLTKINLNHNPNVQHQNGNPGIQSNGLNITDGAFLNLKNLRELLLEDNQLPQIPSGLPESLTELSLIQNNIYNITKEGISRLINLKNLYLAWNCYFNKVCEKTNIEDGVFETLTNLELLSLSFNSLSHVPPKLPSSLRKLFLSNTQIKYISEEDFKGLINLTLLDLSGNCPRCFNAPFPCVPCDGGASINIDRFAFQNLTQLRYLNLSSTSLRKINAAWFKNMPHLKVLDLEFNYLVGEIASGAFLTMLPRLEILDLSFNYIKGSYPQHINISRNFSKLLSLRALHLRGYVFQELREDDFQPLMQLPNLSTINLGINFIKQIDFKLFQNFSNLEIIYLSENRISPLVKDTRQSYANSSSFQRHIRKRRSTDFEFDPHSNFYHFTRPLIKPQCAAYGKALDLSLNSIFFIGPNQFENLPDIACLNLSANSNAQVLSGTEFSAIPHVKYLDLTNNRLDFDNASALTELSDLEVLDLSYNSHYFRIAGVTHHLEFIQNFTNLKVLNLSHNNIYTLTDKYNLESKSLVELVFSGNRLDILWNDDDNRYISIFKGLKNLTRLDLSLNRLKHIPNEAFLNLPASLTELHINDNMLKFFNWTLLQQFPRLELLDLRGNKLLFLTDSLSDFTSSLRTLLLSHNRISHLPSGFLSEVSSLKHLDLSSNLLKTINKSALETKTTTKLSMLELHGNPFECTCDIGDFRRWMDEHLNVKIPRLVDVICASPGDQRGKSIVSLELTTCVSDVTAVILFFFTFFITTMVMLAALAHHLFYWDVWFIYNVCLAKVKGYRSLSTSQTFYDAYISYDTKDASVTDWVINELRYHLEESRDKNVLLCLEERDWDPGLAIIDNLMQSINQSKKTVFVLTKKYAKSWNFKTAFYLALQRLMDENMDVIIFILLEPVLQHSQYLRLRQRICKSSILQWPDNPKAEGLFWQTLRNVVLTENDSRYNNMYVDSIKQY

Row | SMILES | EC50 (human TLR8) | EC50 (human TLR7)
1 | CCCN(CCC)C(=O)C1=Cc2ccc(C(=O)Nc3cncc(C(=O)N4CCCC4)c3)cc2N=C(N)C1 [Example 16, 2-Amino-N4,N4-dipropyl-N8-[5-(pyrrolidine-1-carbonyl)-3-pyridyl]-3H-1-benzazepine-4,8-dicarboxamide] | 14 nM | > 100000 nM
2 | CCCN(CCC)C(=O)C1=Cc2ccc(C(=O)Nc3cccc(CCN)c3)cc2N=C(N)C1 [Example 17, 2-Amino-N8-[3-(2-aminoethyl)phenyl]-N4,N4-dipropyl-3H-1-benzazepine-4,8-dicarboxamide] | 6 nM | > 100000 nM
3 | CCCN(CCC)C(=O)C1=Cc2ccc(C(=O)Nc3cncc(C)c3)cc2N=C(N)C1 [Example 18, 2-Amino-N8-(5-methyl-3-pyridyl)-N4,N4-dipropyl-3H-1-benzazepine-4,8-dicarboxamide] | 2 nM | 34000 nM
4 | CCCN(CCC)C(=O)C1=Cc2ccc(C(=O)Nc3cccc(F)c3)cc2N=C(N)C1 [Example 19, 2-Amino-N8-(3-fluorophenyl)-N4,N4-dipropyl-3H-1-benzazepine-4,8-dicarboxamide] | 5 nM | > 100000 nM
5 | CCCN(CCC)C(=O)C1=Cc2ccc(C(=O)Nc3cncc(F)c3)cc2N=C(N)C1 [Example 20, 2-Amino-N8-(5-fluoro-3-pyridyl)-N4,N4-dipropyl-3H-1-benzazepine-4,8-dicarboxamide] | 3 nM | 46000 nM
6 | CCCN(CCC)C(=O)C1=Cc2ccc(C(=O)Nc3cccnc3C)cc2N=C(N)C1 [Example 21, 2-Amino-N8-(2-methyl-3-pyridyl)-N4,N4-dipropyl-3H-1-benzazepine-4,8-dicarboxamide] | 21 nM | > 100000 nM
7 | CCCN(CCC)C(=O)C1=Cc2ccc(C(=O)Nc3ccc(C)nc3)cc2N=C(N)C1 [Example 22, 2-Amino-N8-(6-methyl-3-pyridyl)-N4,N4-dipropyl-3H-1-benzazepine-4,8-dicarboxamide] | 3 nM | > 100000 nM
8 | CCCN(CCC)C(=O)C1=Cc2ccc(C(=O)Nc3cc(C)cc(C)c3)cc2N=C(N)C1 [Example 23, 2-Amino-N8-(3,5-dimethylphenyl)-N4,N4-dipropyl-3H-1-benzazepine-4,8-dicarboxamide] | 1 nM | > 100000 nM
9 | CCCN(CCC)C(=O)C1=Cc2ccc(C(=O)Nc3ccc(CN)cc3)cc2N=C(N)C1 [Example 24, 2-Amino-N8-[4-(aminomethyl)phenyl]-N4,N4-dipropyl-3H-1-benzazepine-4,8-dicarboxamide] | 9 nM | > 100000 nM
10 | CCCN(CCC)C(=O)C1=Cc2ccc(C(=O)Nc3ccc(CCN)cc3)cc2N=C(N)C1 [Example 25, 2-Amino-N8-[4-(2-aminoethyl)phenyl]-N4,N4-dipropyl-3H-1-benzazepine-4,8-dicarboxamide] | 18 nM | > 100000 nM
11 | CCCN(CCCO)C(=O)C1=Cc2ccc(C(=O)Nc3cccc(C)c3)cc2N=C(N)C1 [Example 26, 2-Amino-N4-(3-hydroxypropyl)-N8-(m-tolyl)-N4-propyl-3H-1-benzazepine-4,8-dicarboxamide] | 2 nM | > 100000 nM
12 | CCCN(CCC)C(=O)C1=Cc2ccc(C(=O)Nc3ccccc3C)cc2N=C(N)C1 [Example 27, 2-Amino-N8-(o-tolyl)-N4,N4-dipropyl-3H-1-benzazepine-4,8-dicarboxamide] | 5 nM | 28000 nM
13 | CCCN(CCC)C(=O)C1=Cc2ccc(C(=O)Nc3ccc(C)cc3)cc2N=C(N)C1 [Example 28, 2-Amino-N4,N4-dipropyl-N8-(p-tolyl)-3H-1-benzazepine-4,8-dicarboxamide] | 1 nM | > 100000 nM
14 | CCCN(CCC)C(=O)C1=Cc2ccc(C(=O)Nc3cccc(CC)c3)cc2N=C(N)C1 [Example 29, 2-Amino-N8-(3-ethylphenyl)-N4,N4-dipropyl-3H-1-benzazepine-4,8-dicarboxamide] | 1 nM | > 100000 nM
15 | CCCN(CCC)C(=O)C1=Cc2ccc(C(=O)Nc3cccc(OC)c3)cc2N=C(N)C1 [Example 30, 2-Amino-N8-(3-methoxyphenyl)-N4,N4-dipropyl-3H-1-benzazepine-4,8-dicarboxamide] | 2 nM | > 100000 nM
16 | CCCN(CCC)C(=O)C1=Cc2ccc(C(=O)Nc3cccc(C(F)(F)F)c3)cc2N=C(N)C1 [Example 31, 2-Amino-N4,N4-dipropyl-N8-[3-(trifluoromethyl)phenyl]-3H-1-benzazepine-4,8-dicarboxamide] | 5 nM | > 100000 nM
17 | CCCN(CCC)C(=O)C1=Cc2ccc(C(=O)Nc3cccc(Cl)c3)cc2N=C(N)C1 [Example 32, 2-Amino-N8-(3-chlorophenyl)-N4,N4-dipropyl-3H-1-benzazepine-4,8-dicarboxamide] | 2 nM | > 100000 nM

Row | SMILES | EC50 (human TLR8) | EC50 (human TLR7)
18 | CCCN(CCC)C(=O)C1=Cc2ccc(C(=O)Nc3cncc(CN)c3)cc2N=C(N)C1 [Example 33, 2-Amino-N8-[5-(aminomethyl)-3-pyridyl]-N4,N4-dipropyl-3H-1-benzazepine-4,8-dicarboxamide] | 2 nM | > 100000 nM
19 | CCCN(CCC)C(=O)C1=Cc2ccc(C(=O)Nc3ccnnc3)cc2N=C(N)C1 [Example 34, 2-Amino-N4,N4-dipropyl-N8-pyridazin-4-yl-3H-1-benzazepine-4,8-dicarboxamide] | 2 nM | > 100000 nM
20 | CCCN(CCC)C(=O)C1=Cc2ccc(C(=O)Nc3ccc(OCC)nc3)cc2N=C(N)C1 [Example 35, 2-Amino-N8-(6-ethoxy-3-pyridyl)-N4,N4-dipropyl-3H-1-benzazepine-4,8-dicarboxamide] | 1 nM | > 100000 nM
21 | CCCN(CCC)C(=O)C1=Cc2ccc(C(=O)Nc3cccc(CN)c3)cc2N=C(N)C1 [Example 36, 2-Amino-N8-[3-(aminomethyl)phenyl]-N4,N4-dipropyl-3H-1-benzazepine-4,8-dicarboxamide] | 31 nM | > 100000 nM
22 | CCCN(CCC)C(=O)C1=Cc2ccc(C(=O)Nc3ccn(C)n3)cc2N=C(N)C1 [Example 37, 2-Amino-N8-(1-methylpyrazol-3-yl)-N4,N4-dipropyl-3H-1-benzazepine-4,8-dicarboxamide] | 23 nM | 38000 nM
23 | CCCN(CCC)C(=O)C1=Cc2ccc(C(=O)Nc3ncco3)cc2N=C(N)C1 [Example 38, 2-Amino-N8-oxazol-2-yl-N4,N4-dipropyl-3H-1-benzazepine-4,8-dicarboxamide] | 29 nM | 45000 nM
24 | CCCN(CCCO)C(=O)C1=Cc2ccc(C(=O)Nc3cccnc3)cc2N=C(N)C1 [Example 39, 2-Amino-N4-(3-hydroxypropyl)-N4-propyl-N8-(3-pyridyl)-3H-1-benzazepine-4,8-dicarboxamide] | 29 nM | > 100000 nM
25 | CCCN(CCC)C(=O)C1=Cc2ccc(C(=O)Nc3cncc(OC)c3)cc2N=C(N)C1 [Example 40, 2-Amino-N8-(5-methoxy-3-pyridyl)-N4,N4-dipropyl-3H-1-benzazepine-4,8-dicarboxamide] | 1 nM | > 100000 nM
26 | C#CCN(CCC)C(=O)C1=Cc2ccc(C(=O)Nc3cccc(C)c3)cc2N=C(N)C1 [Example 41, 2-Amino-N8-(m-tolyl)-N4-propyl-N4-prop-2-ynyl-3H-1-benzazepine-4,8-dicarboxamide] | 6 nM | > 100000 nM
27 | CCCCN(CCCC)C(=O)C1=Cc2ccc(C(=O)Nc3cccc(C)c3)cc2N=C(N)C1 [Example 42, 2-Amino-N4,N4-dibutyl-N8-(m-tolyl)-3H-1-benzazepine-4,8-dicarboxamide] | 17 nM | > 100000 nM
28 | CCCN(CCC)C(=O)C1=Cc2ccc(C(=O)Nc3cc(C)cc(CN)c3)cc2N=C(N)C1 [Example 43, 2-Amino-N8-[3-(aminomethyl)-5-methyl-phenyl]-N4,N4-dipropyl-3H-1-benzazepine-4,8-dicarboxamide] | 15 nM | 61000 nM
29 | CCCN(CCC)C(=O)C1=Cc2ccc(C(=O)Nc3cncc(OCC)c3)cc2N=C(N)C1 [Example 44, 2-Amino-N8-(5-ethoxy-3-pyridyl)-N4,N4-dipropyl-3H-1-benzazepine-4,8-dicarboxamide] | 1 nM | 12000 nM
30 | CCCN(CCC)C(=O)C1=Cc2ccc(C(=O)Nc3cccc(OCCOCCN)c3)cc2N=C(N)C1 [Example 45, 2-Amino-N8-[3-[2-(2-aminoethoxy)ethoxy]phenyl]-N4,N4-dipropyl-3H-1-benzazepine-4,8-dicarboxamide] | 26 nM | > 100000 nM
31 | CCCN(CCC)C(=O)C1=Cc2ccc(C(=O)Nc3cncc(OCCCCCN)c3)cc2N=C(N)C1 [Example 46, 2-Amino-N8-[5-(5-aminopentoxy)-3-pyridyl]-N4,N4-dipropyl-3H-1-benzazepine-4,8-dicarboxamide] | 10 nM | > 100000 nM
32 | CCCN(CCC)C(=O)C1=Cc2ccc(C(=O)Nc3cccc(COCCOCCN)c3)cc2N=C(N)C1 [Example 47, 2-Amino-N8-[3-[2-(2-aminoethoxy)ethoxymethyl]phenyl]-N4,N4-dipropyl-3H-1-benzazepine-4,8-dicarboxamide] | 6 nM | > 100000 nM
33 | CCCN(CCC)C(=O)C1=Cc2ccc(C(=O)Nc3cncc(C#CCN)c3)cc2N=C(N)C1 [Example 48, 2-Amino-N8-[5-(3-aminoprop-1-ynyl)-3-pyridyl]-N4,N4-dipropyl-3H-1-benzazepine-4,8-dicarboxamide] | 16 nM | > 100000 nM
34 | CCCN(CCCOCCOCCN)C(=O)C1=Cc2ccc(C(=O)Nc3cccc(C)c3)cc2N=C(N)C1 [Example 49, 2-amino-N4-[3-[2-(2-aminoethoxy)ethoxy]propyl]-N8-(m-tolyl)-N4-propyl-3H-1-benzazepine-4,8-dicarboxamide] | 31 nM | > 100000 nM
